For test [1], the target named is GST-tagged PIK3Cδ in complex with PIK3R1 (Homo sapiens, UniProt O00329). Nature of the test: PI3Kδ HTRF binding assay. The settings on record: HTRF probe displacement, 1 h at rt; read-out: PIK3CD IC50.
Test [2] deals with MLKL phosphorylation in HT29-L23 human colorectal adenocarcinoma cells. The experiment in a line: MLKL phosphorylation high-content assay. The class given is cell-based.
Test [3] addresses T1, His-GST-TVMV-hRIPK1(1-324) (Homo sapiens, UniProt Q13546).
T1 construct: The coding region of human RIPK1(1-324) flanked by NdeI site at 5′ end; made in house; host or cells: Spodoptera frugiperda Sf9 insect cells (baculovirus, Bac-to-Bac)
T1 sequence (Q13546 1-324): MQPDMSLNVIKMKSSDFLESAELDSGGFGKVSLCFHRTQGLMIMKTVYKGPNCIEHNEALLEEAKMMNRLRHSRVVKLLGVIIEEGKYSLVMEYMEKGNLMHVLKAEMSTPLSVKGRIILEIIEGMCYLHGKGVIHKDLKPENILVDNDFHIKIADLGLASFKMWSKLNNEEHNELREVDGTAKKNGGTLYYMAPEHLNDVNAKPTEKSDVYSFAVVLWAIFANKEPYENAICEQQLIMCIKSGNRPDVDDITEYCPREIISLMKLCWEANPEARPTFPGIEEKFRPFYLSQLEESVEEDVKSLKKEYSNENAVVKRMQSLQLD
Nature of the test: biochemical. The class given is binding. The settings on record: read-out: RIPK1 IC50.

Setting [4] is: HT29-L23 cells, necroptosis induced with TNFα, SMAC mimetic and Z-VAD, 6 h, maximal inhibition defined by Nec1s, read-out: pMLKL IC50.
The mark [5] stands for this setting: Table 22, compounds of the present invention, read-out: pMLKL IC50.
Where [6] appears, read: read-out: pMLKL IC50, HT29-L23 cells, necroptosis induced with TNFα, SMAC mimetic and Z-VAD, 6 h, maximal inhibition defined by Nec1s.
Setting [7] is: Homo sapiens, 6 h, HT29-L23 cells, necroptosis induced with TNFα, SMAC mimetic and Z-VAD, 6 h, maximal inhibition defined by Nec1s, read-out: pMLKL IC50.
The mark [8] stands for this setting: HTRF probe displacement, 1 h at rt.
The mark [9] stands for this setting: Homo sapiens, 6 h, read-out: pMLKL IC50, HT29-L23 cells, necroptosis induced with TNFα, SMAC mimetic and Z-VAD, 6 h, maximal inhibition defined by Nec1s.

Drawing on patent US11767322B2 (BRISTOL-MYERS SQUIBB COMPANY, priority 2020, dated 2023), this text covers IC50 for 21 compounds.

Read-outs that look alike come from different tables or passages of the source.

GST-tagged PIK3Cδ in complex with PIK3R1, sequence (O00329 whole entry): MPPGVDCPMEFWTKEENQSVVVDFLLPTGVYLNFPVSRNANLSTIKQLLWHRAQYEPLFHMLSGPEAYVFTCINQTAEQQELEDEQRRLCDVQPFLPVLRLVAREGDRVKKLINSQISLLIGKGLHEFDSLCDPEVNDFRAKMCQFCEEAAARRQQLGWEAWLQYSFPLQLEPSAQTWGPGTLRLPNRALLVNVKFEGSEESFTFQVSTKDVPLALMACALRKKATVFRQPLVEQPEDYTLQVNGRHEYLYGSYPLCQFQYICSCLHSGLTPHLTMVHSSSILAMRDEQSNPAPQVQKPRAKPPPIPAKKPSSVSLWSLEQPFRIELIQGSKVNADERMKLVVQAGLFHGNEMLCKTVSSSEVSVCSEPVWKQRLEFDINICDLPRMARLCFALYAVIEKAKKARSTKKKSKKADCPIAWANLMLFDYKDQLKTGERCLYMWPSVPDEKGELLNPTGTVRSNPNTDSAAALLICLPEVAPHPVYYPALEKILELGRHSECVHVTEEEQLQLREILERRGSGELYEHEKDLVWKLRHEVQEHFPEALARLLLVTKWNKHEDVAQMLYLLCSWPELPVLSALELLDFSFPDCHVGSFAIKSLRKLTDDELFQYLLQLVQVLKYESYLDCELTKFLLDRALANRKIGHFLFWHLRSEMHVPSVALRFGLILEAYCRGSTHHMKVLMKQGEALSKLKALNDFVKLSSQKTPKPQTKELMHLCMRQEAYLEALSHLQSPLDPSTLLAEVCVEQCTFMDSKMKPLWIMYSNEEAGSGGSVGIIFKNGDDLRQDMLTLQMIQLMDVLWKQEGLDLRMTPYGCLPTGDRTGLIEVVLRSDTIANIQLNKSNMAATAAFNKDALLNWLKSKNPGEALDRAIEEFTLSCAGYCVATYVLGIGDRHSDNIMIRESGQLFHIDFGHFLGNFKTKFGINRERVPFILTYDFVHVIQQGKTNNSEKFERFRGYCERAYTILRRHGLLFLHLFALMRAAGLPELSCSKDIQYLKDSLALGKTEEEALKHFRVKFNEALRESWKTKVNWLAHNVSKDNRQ
GST-tagged PIK3Cδ in complex with PIK3R1, sequence (P27986 whole entry partner): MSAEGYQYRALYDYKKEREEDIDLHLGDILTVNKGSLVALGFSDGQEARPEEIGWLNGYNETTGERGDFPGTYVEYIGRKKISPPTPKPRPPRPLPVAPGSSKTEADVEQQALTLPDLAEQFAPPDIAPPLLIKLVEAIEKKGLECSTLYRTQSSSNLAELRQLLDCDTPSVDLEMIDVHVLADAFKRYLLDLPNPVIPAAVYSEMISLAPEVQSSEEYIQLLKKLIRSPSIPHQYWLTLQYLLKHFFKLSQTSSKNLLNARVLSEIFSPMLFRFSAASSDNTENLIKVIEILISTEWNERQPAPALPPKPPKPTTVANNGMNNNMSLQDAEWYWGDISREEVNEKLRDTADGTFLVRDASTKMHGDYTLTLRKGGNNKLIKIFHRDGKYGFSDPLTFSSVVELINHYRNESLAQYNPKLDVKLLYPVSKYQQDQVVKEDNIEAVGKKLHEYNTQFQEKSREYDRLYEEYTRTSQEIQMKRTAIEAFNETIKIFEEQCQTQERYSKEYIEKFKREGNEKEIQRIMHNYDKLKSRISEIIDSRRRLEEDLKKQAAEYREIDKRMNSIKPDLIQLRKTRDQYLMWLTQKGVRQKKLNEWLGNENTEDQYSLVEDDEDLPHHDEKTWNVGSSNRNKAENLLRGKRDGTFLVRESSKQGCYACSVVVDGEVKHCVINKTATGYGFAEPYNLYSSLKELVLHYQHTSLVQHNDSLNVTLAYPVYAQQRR

As to `Cc1ccc(-c2ccn3nc(N)nc3c2)c(F)c1C(=O)NC(C)CC(O)c1ccc(Cl)cc1` (racemic) [Example 20, 3-(2-amino-[1,2,4]triazolo[1,5-a]pyridin-7-yl)-N-[4-(4-chlorophenyl)-4-hydroxybutan-2-yl]-2-fluoro-6-methylbenzamide], the IC50 is above 15 µM in test [1], 3.6 nM in test [2] (setting [4]) and 3.6 nM in test [2] (setting [5]). For the compound `Cc1ccc(-c2ccn3nc(N)nc3c2)c(F)c1C(=O)NC(CF)CC(O)c1ccc(Cl)cc1` (single isomer, unassigned) [Example 24, 3-(2-amino-[1,2,4]triazolo[1,5-a]pyridin-7-yl)-N-(4-(4-chlorophenyl)-1-fluoro-4-hydroxybutan-2-yl)-2-fluoro-6-methylbenzamide], in test [1], the IC50 is above 15 µM.

Turning to `Cc1c(C(=O)NC(C)CC(O)c2ccc(Cl)cc2)cc(-c2ccn3nc(N)nc3c2)c(F)c1F` (racemic) [Example 100, 5-(2-amino-[1,2,4]triazolo[1,5-a]pyridin-7-yl)-N-(4-(4-chlorophenyl)-4-hydroxybutan-2-yl)-3,4-difluoro-2-methylbenzamide], the IC50 is above 15 µM in test [1] and 27 nM in test [2] (setting [6]). In the case of `Cc1ccc(-c2ccn3nc(N)nc3c2)c(F)c1C(=O)NC[C@H](F)[C@@H](O)c1ccc(Cl)cc1` (single isomer, unassigned) [Example 302], the IC50 in test [1] was above 15 µM.

`Cc1ccc(-c2ccn3nc(N)nc3c2)c(F)c1C(=O)NCC(F)(F)C(O)c1ccc(Cl)c(Cl)c1` (single isomer, unassigned) [Example 112, 3-{2-amino-[1,2,4]triazolo[1,5-a]pyridin-7-yl}-N-[3-(3,4-dichlorophenyl)-2,2-difluoro-3-hydroxypropyl]-2-fluoro-6-methylbenzamide]: the IC50 in test [1] is above 15 µM. Take `Nc1nc2cc(-c3c(F)ccc(C(=O)NCC[C@@H](O)c4ccc(Cl)cc4)c3F)ccn2n1` [Example 220, (R)-3-(2-amino-[1,2,4]triazolo[1,5-a]pyridin-7-yl)-N-(3-(4-chlorophenyl)-3-hydroxypropyl)-2,4-difluorobenzamide]: the IC50 in test [1] is above 15 µM; in test [2] (setting [7]) it was 36 nM.

`Cc1ccc(-c2ccn3nc(N)nc3c2)c(F)c1C(=O)NC(C)CC(O)c1ccc(Cl)cc1` (racemic) [Example 19, 3-(2-amino-[1,2,4]triazolo[1,5-a]pyridin-7-yl)-N-[4-(4-chlorophenyl)-4-hydroxybutan-2-yl]-2-fluoro-6-methylbenzamide]: the figures for the IC50 in test [1], in test [2] (setting [4]) and in test [2] (setting [5]) were above 15 µM, 7.7 nM and 7.7 nM, respectively. As to `Cc1ccc(-c2ccn3nc(N)nc3c2)c(F)c1C(=O)NC(CF)CC(O)c1ccc(Cl)cc1` (single isomer, unassigned) [Example 23, 3-(2-amino-[1,2,4]triazolo[1,5-a]pyridin-7-yl)-N-(4-(4-chlorophenyl)-1-fluoro-4-hydroxybutan-2-yl)-2-fluoro-6-methylbenzamide], the IC50 in test [1] is above 15 µM. Take `Cc1c(C(=O)NC(CF)CC(O)c2ccc(Cl)cc2)cc(-c2ccn3nc(N)nc3c2)c(F)c1F` (racemic) [Example 102, 5-(2-amino-[1,2,4]triazolo[1,5-a]pyridin-7-yl)-N-(4-(4-chlorophenyl)-1-fluoro-4-hydroxybutan-2-yl)-3,4-difluoro-2-methylbenzamide]: the results for the IC50 in test [1] and in test [2] (setting [4]) were above 15 µM and 7.6 nM, respectively. On to `Cc1ccc(-c2ccn3nc(N)nc3c2)c(F)c1C(=O)NCC(F)(F)C(O)C1CC(F)(F)C1` (stereo not drawn) [Example 259, 3-(2-amino-[1,2,4]triazolo[1,5-a]pyridin-7-yl)-N-(3-(3,3-difluorocyclobutyl)-2,2-difluoro-3-hydroxypropyl)-2-fluoro-6-methylbenzamide], for which the IC50 in test [1] is above 15 µM. Consider `Cc1cc(F)c(-c2ccn3nc(N)nc3c2)cc1C(=O)NCCC(O)c1ccc(C(F)(F)F)cc1` (racemic) [Example 2, 5-(2-amino-[1,2,4]triazolo[1,5-a]pyridin-7-yl)-4-fluoro-N-(3-hydroxy-3-(4-(trifluoromethyl)phenyl)propyl)-2-methylbenzamide], for which the IC50 in test [1] is above 15 µM. Take `Cc1ccc(-c2ccn3nc(N)nc3c2)c(F)c1C(=O)NCC[C@H](O)c1ccc(C#N)cc1` [Example 139, 3-{2-amino-[1,2,4]triazolo[1,5-a]pyridin-7-yl}-N-[(3S)-3-(4-cyanophenyl)-3-hydroxypropyl]-2-fluoro-6-methylbenzamide]: the IC50 is above 15 µM in test [1] and 7.4 nM in test [2] (setting [7]). For the compound `Cc1ccc(-c2ccn3nc(N)nc3c2)c(F)c1C(=O)NCC(F)(F)C(O)C1CC(F)(F)C1` (stereo not drawn) [Example 258, 3-(2-amino-[1,2,4]triazolo[1,5-a]pyridin-7-yl)-N-(3-(3,3-difluorocyclobutyl)-2,2-difluoro-3-hydroxypropyl)-2-fluoro-6-methylbenzamide], the IC50 in test [1] was above 15 µM. On the same count and under the same terms, under `Cc1ccc(-c2ccn3nc(N)nc3c2)c(F)c1C(=O)NCC(F)(F)C(O)c1ccc(Cl)c(Cl)c1` (single isomer, unassigned) [Example 113, 3-{2-amino-[1,2,4]triazolo[1,5-a]pyridin-7-yl}-N-[3-(3,4-dichlorophenyl)-2,2-difluoro-3-hydroxypropyl]-2-fluoro-6-methylbenzamide] stands above 15 µM; under `Cc1cc(F)c(-c2ccn3nc(N)nc3c2)cc1C(=O)NCCC(O)c1ccc(C(F)(F)F)cc1` (single isomer, unassigned) [Example 3, 5-(2-amino-[1,2,4]triazolo[1,5-a]pyridin-7-yl)-4-fluoro-N-(3-hydroxy-3-(4-(trifluoromethyl)phenyl)propyl)-2-methylbenzamide], above 15 µM; under `Cc1ccc(-c2ccn3nc(N)nc3c2)c(F)c1C(=O)NCCC(O)c1ccc(Cl)cn1` (single isomer, unassigned) [Example 47, 3-(2-amino-[1,2,4]triazolo[1,5-a]pyridin-7-yl)-N-(3-(5-chloropyridin-2-yl)-3-hydroxypropyl)-2-fluoro-6-methylbenzamide], above 15 µM. The same measure, in the same setting: the figure for `Cc1ccc(-c2ccn3nc(N)nc3c2)c(F)c1C(=O)NC[C@@H](F)[C@H](O)c1ccc(Cl)cc1` (single isomer, unassigned) [Example 303] is above 15 µM. As to `Cc1ccc(-c2ccn3nc(N)nc3c2)c(F)c1C(=O)NCC(F)(F)C(O)(c1ccc(F)cc1)C(F)F` (stereo not drawn) [Example 274, 3-(2-amino-[1,2,4]triazolo[1,5-a]pyridin-7-yl)-2-fluoro-6-methyl-N-(2,2,4,4-tetrafluoro-3-(4-fluorophenyl)-3-hydroxybutyl)benzamide], the IC50 in test [3] (setting [8]) stood at 19 nM; in test [2] (setting [9]), 0.7 nM. `Cc1nc(C)c(-c2ccn3nc(N)nc3c2)cc1C(=O)NCC(O)Cc1ccccc1` (stereo not drawn) [Example 174]: the IC50 is 48 nM in test [3] (Table 23, representative compounds from WO2018/148626) and 205 nM in test [2] (Homo sapiens, Table 23, representative compounds from WO2018/148626, read-out: pMLKL IC50). As to `Nc1nc2cc(-c3ccc(Cl)c(C(=O)NCC(F)(F)C(O)c4cccc(F)c4)c3F)ccn2n1` (single isomer, unassigned) [Example 169, 3-{2-amino-[1,2,4]triazolo[1,5-a]pyridin-7-yl}-6-chloro-N-[2,2-difluoro-3-(3-fluorophenyl)-3-hydroxypropyl]-2-fluorobenzamide], the IC50 came out at 0.9 nM in test [3] (setting [8]) and 28 nM in test [2] (setting [6]). Take `Cc1ccc(-c2ccn3nc(N)nc3c2C)c(F)c1C(=O)NCC[C@H](O)c1ccc(Cl)cc1` [compound 134]: the IC50 in test [3] (setting [8]) is 2.9 nM; in test [2] (setting [9]) it was 1.5 nM.
